The results in this text go back to patent US5196292A, “Nucleated high contrast photographic elements containing ballasted thioether isothioureas to inhibit pepper fog and restrain image spread” (priority 1991, dated 1993).

A short description of test [1]: sensitometry: change in speed and practical density point versus control. Conditions: Table I; for Delta Log Speed: 0.5 mmol/Ag mol isothiourea, change versus control without isothiourea; for Delta PDP (practical density point): 0.5 mmol/Ag mol, density at 0.4 log E past speed point, Test PDP - Control PDP. The protocol:
(§1) Each coating used in obtaining the data provided in these examples was prepared on a polyester support, using a monodispersed 0.23 micrometer cubic, rhodium-doped, sulfur plus gold sensitized AgClBr(70/30) emulsion at 3.24 g/m^2 Ag, 2.35 g gel/m^2 and 1.00 g latex/m^2, where the latex is a copolymer of methyl acrylate, 2-acrylamido-2-methylpropane sulfonic acid and 2-acetoacetoxyethylmethacrylate. Sulfur and gold sensitization was provided by addition of 1.5 mg/Ag mole of 1,3-dicarboxymethyl-1,3-dimethyl-2-thiourea and 1.1 mg/Ag mole of potassium tetrachloroaurate. The silver halide emulsion also contained, in amounts of 50, 400, and 200 mg/Ag mole, respectively, the antifoggants 1-(3-acetamidophenyl)-5-mercaptotetrazole, 5-carboxy-4-hydroxy-6-methyl-2-methyl-mercapto1,3,3a,7-tetra-azaindene and 5-bromo-4-hydroxy-6-methyl-1,3,3a,7-tetraazaindene. The emulsion was spectr sensitized at 208 mg/Ag mol with a sensitizing dye of the formula: [drawing 17] and the emulsion layer was overcoated with gelatin containing polymethylmethacrylate beads. The nucleating agent was added as a methanol solution to the emulsion melts at a level of 0.2 millimoles (mM) per mole of silver. The compound employed as the nucleating agent is represented by the formula: [drawing 18]
(§2) An "incorporated booster" was added as a methanol solution in an amount of 2 g/Ag mol. The compound employed as the "incorporated booster" is represented by the formula: [drawing 19] where Pr represents n-propyl
(§3) Ballasted thioether isothioureas I to VII were incorporated n the emulsion at 0.5 mmol/Ag mol as methanol solutions. Coatings were exposed through a 0.1 Log E step tablet for five seconds to a 3000° K. tungsten light source and processed for 30 seconds at 30° C. in the developer solution. Processing was carried out in a KODAK KODAMATIC Model 42S processor.
(§4) The concentrate was diluted at a ratio of one part of concentrate to three parts of water to produce a working strength developing solution with a pH of 10.5.
(§5) An electronic image analyzer was used to scan processed unexposed samples and count the number of pepper fog spots (>10 micrometer diameter) contained in an area of 600 square millimeters. Standard sensitometry exposures were processed and analyzed to monitor speed and shoulder density effects.
(§6) Sensitometry parameters are expressed in Table I in terms of the change produced by incorporation of the ballasted thioether isothiourea versus the control which contained no isothiourea compound and was processed under identical conditions. Values are reported for speed, practical density point (PDP, a measure of shoulder development) and pepper fog (PF). Therefore, the changes in speed, practical density point and pepper fog produced by the ballasted thioether isothiourea are directly recorded in the table. By definition, the delta log speed, delta PDP and delta log PF for the control are zero.
(§7) In each of examples 1 to 7, the ballasted thioether isothiourea was employed in the form of the hydrochloride salt. Comparative test A utilized the hydrobromide salt of isothiourea compound "A" of the formula: [drawing 20] Comparative test B utilized the hydrobromide salt of isothiourea compound "B" of the formula: [drawing 21] Both compounds A and B were utilized at a concentration of 0.5 mmol/Ag mol.

The nature of test [2]: pepper fog spot count by electronic image analyzer, change versus control. Conditions: for Delta Log PF (pepper fog): Table I, 0.5 mmol/Ag mol, spots >10 micrometer diameter in 600 square millimeters, -0.3 = two times reduction; for reduction in pepper fog (in words): from Table I, versus control. The procedure: as §1, §2, §3, §4, §5, §6, §7
Test [3] is described as follows: image spread: halftone dot growth rate during development. The conditions noted are these: for Dot Growth Rate: Table II, 0.5 mmol/Ag mol, control 0.63 microns/sec; for reduction of dot growth rate (in words): from Table II, versus control, silver chlorobromide emulsion. The procedure: as §1, §2, §3
Each of the coatings was also analyzed for the effect upon image spread of the incorporation of the isothiourea compound.
Image spread measurements were performed by following the growth in diameter of halftone dots with development time. The films were contact exposed to a 52 line/cm 90% tint to produce a 10% exposed dot pattern. The films were then developed in a device that measures the infrared (IR) density during development. The integrated IR halftone density of the developing tint pattern was converted to the equivalent dot diameter using the relation between integrated density and percent dot area. The resulting plots of increasing dot diameter with development time were linear (constant dot growth rate) during the first 60 to 90 seconds of development.

In the case of `CCCCCCCCSC(=N)N` [Compound A, reference compound], in test [1], the “Delta Log Speed” value is given as -0.02 and the “Delta PDP (practical density point)” value is given as -0.22. In addition, in test [2], the “Delta Log PF (pepper fog)” value was -0.12 and the “reduction in pepper fog (in words)” value is “also reduced pepper fog, but to a much lesser extent”. In test [3], the “Dot Growth Rate” value is listed as 0.62 microns/sec and the “reduction of dot growth rate (in words)” value is listed as “ineffective in reducing dot growth rate”.
On to `CCCCSCCSC(=N)N` [V], for which, in test [1], the “Delta Log Speed” value is listed as -0.01 and the “Delta PDP (practical density point)” value is -0.38. Further, the “Delta Log PF (pepper fog)” value in test [2] is given as -0.33. The “Dot Growth Rate” value in test [3] was determined as 0.57 microns/sec.
Regarding `CCCCCCSCCSC(=N)N` [I], in test [1], the “Delta Log Speed” value is reported as -0.01 and the “Delta PDP (practical density point)” value was -0.06. The “Delta Log PF (pepper fog)” value in test [2] was -0.14. For the same compound, in test [3], the “Dot Growth Rate” value is recorded as 0.55 microns/sec.
For `N=C(N)SCCSCc1ccccc1` [VII], in test [1], the “Delta Log Speed” value is given as -0.03 and the “Delta PDP (practical density point)” value is recorded as -0.42. In test [2], the “Delta Log PF (pepper fog)” value is reported as -0.86 and the “reduction in pepper fog (in words)” value is on record as “reducing pepper fog by a factor of almost ten times”. Further, in test [3], the “Dot Growth Rate” value stood at 0.54 microns/sec.
Turning to `N=C(N)SCCSc1ccccc1` [VI], in test [1], the “Delta Log Speed” value is -0.01 and the “Delta PDP (practical density point)” value is listed as -0.19. For the same compound, in test [2], the “Delta Log PF (pepper fog)” value was -0.48. In addition, in test [3], the “Dot Growth Rate” value is 0.60 microns/sec.
For `CCCCCCCCCCSCCCSC(=N)N` [IV], in that order: -0.01, -0.39, -0.43 and 0.58 microns/sec.
For `CCCCCCCCCCSCCSC(=N)N` [II], in that order: -0.03, -0.14, -0.46 and 0.58 microns/sec.
Consider `CCCCCCCCCCCCSC(=N)N` [B, reference compound], for which, in test [1], the “Delta Log Speed” value is -0.02 and the “Delta PDP (practical density point)” value is recorded as -0.34. Besides, in test [2], the “Delta Log PF (pepper fog)” value is recorded as -0.07 and the “reduction in pepper fog (in words)” value is given as “also reduced pepper fog, but to a much lesser extent”. In test [3], the “Dot Growth Rate” value worked out at 0.62 microns/sec and the “reduction of dot growth rate (in words)” value was “ineffective in reducing dot growth rate”.
With `CCCCCCSCCCSC(=N)N` [III], in test [1], the “Delta Log Speed” value is -0.02 and the “Delta PDP (practical density point)” value is listed as -0.36. For the same compound, the “Delta Log PF (pepper fog)” value in test [2] is -0.58. Also, the “Dot Growth Rate” value in test [3] was 0.54 microns/sec.
